The values below come from patent US5602140A, “Purine derivatives and suppressants for inflammatory diseases” (Japan Energy Corporation, priority 1994, dated 1997).

Assay [1] concerns the target TXA2 synthesis (crude TXA2 synthetase). Kind of assay: Inhibition of TXA2 synthesis (crude TXA2 synthetase, labeled arachidonic acid, RIA). The assay is classed as biochemical, human. To be noted: for pIC50: TXA2 formation, 37° C., 10 min. The protocol: Inhibitory effect against TXA2 synthesis was evaluated by the method shown below determining the formation of TXA2 as an arachidonic acid metabolite in the presence of purine derivatives of the present invention.
TXA2 (thromboxane A2) is reported to be synthesized by TXA2 synthetase in arachidonic acid cascade via a cyclic peroxide (PGH2) formed by cyclooxygenase system. Crude TXA2 synthetase was prepared by the following method in the present invention. Blood drawn from healthy volunteer was centrifuged at 200 G for 15 min. and the resulting supernatant was further centrifuged at 2,000 G for 10 min. to give precipitates. The precipitates were homogenized in 0.01M phosphate buffer and centrifuged at 1,000 G for 10 min. to give a supernatant. The resultant supernatant was used as a crude TXA2 synthetase in the following processes. […] The reaction solution was incubated at 37° C. for 10 min. and TXA2 formed in the reaction mixture was determined by RIA method using a commercially available kit (Amersham Co., Ltd., RIA kit). The inhibitory rate was calculated from the difference between the determined amount of formed TXA2 and that carried out in the absence of the test compound. When the difference of formed amount of TXA2 was 0 (zero), then the inhibitory rate was made 0% and when the formation of TXA2 was equal to that of solvent control without TXA2 synthetase, then the inhibitory rate was made 100%.
The inhibitory rate was estimated for various concentrations of said test compounds and the concentration of 50%-inhibition (IC50) was regressively calculated. The inhibitory effect against TXA2 formation was evaluated using IC50.

The subject of assay [2] is platelet aggregation induced by PAF. Kind of assay: Anti-PAF activity: inhibition of platelet aggregation induced by PAF in platelet rich plasma. The assay is classed as cell-based, rabbit. To be noted: Oryctolagus cuniculus, PAF 10 nM, test compound concentration 30 μM, read-out: Inhibitory rate. The protocol: Anti-PAF activity of purine derivatives of the present invention was evaluated in the inhibition of platelet aggregation induced by PAF (platelet activation factor).
In the present evaluation, blood was drawn from rabbit and 9 volumes of the blood was added with 1 volume of 3.8% sodium citrate solution, centrifuged at 2,000 rpm for 3 min. to give platelet rich plasma (PRP). In a platelet aggregation determination apparatus, 200 μl of the PRP solution and 25 μl of a solution prepared from a predetermined amount of the test compound were mixed and incubated for 2 min. The incubated mixture was added with 25 μl of a solution containing a predetermined amount of PAF to cause platelet aggregation induced by PAF in the test solution. A concentration of PAF was 10 nM in the test solution. The inhibitory rate against platelet aggregation induced by PAF was calculated from the changes of transmission accompanied by the platelet aggregation.
Various concentrations of the test compounds in the test solution were selected to investigate the relationship between the concentration and the inhibitory rate for the evaluation of inhibitory rate of platelet aggregation induced by PAF. […] The inhibitory rate for the positive control compound, CV-3988 (rac-3-(N-n-octadecylcarbamoyl)-2-methoxypropyl-2-thiazolium ethyl phosphate) is also shown in Table 4.

Assay [3] can be described thus: Scavenging of active oxygen / inhibitory effect against lipid peroxidation (oxidation of linolenic acid to conjugated diene by hydroxy radical, Fenton reaction). Type of assay: biochemical. To be noted: linolenic acid 1.0 mM, absorbance at 234 nm. The protocol: The inhibitory effect against oxidation of linolenic acid to conjugated diene due to hydroxy radical (. OH) formed by Fenton reaction was determined according to the method of Kharasch et al. (see J. Biol. Chem., 2.60, 10,645 (1985)). A predetermined concentration of FeCl2 solution was added to a mixture of water and DMSO containing predetermined amount of linolenic acid, NaCl, H2 O2, Lubrol and the rest compound to start the reaction. […] Then, the changes of absorbance at 234 nm due to the formation of conjugated diene in the reaction solutions were determined periodically. The inhibitory rate (%) was estimated from the differences between the test solutions and corresponding solutions without the test compound. When the difference of said reaction rate was 0 (zero), then the inhibitory rate was made 0%, and when the reaction rate was 0 (zero), then the inhibitory rate was made 100%.
The inhibitory rate was estimated for various concentrations of said test compounds and the 50%-inhibitory concentration (IC50) was regressively calculated. The preventive effect against lipid peroxidation was evaluated using IC50.

The next assay concerns endotoxin induced death. The assay is described as follows: Activity for the endotoxin (LPS) induced death in mice. Type of assay: in vivo, male ICR mice. Conditions: for Survival rate: oral twice (30 min before and 8 hrs after LPS 15 mg/kg i.p.), within 4 days, control 50%. As to the method:
(Activity for the endotoxin induced death) Activity of purine derivatives of the present invention for endothelial cell damage by endotoxin was evaluated by the following method.
In the present method of evaluation, endotoxin caused endothelial cell damage was induced by intraperitoneal administration of LPS (E. coli 055:B5) to male ICR mice. The body weight of test mice was determined beforehand and a dose of 15 mg/kg (body weight) of LPS was predetermined. After administration of LPS, the difference between the number of dead mice induced by endotoxin within 4 days and the total number of mice was divided by the total number of mice to give the survival rate. The dose per body weight of test compound was predetermined and orally administered at 30 min. before induction (LPS administration) and at 8 hrs. after the induction, twice in total. The test compounds were suspended in 0.5% CMC--Na aqueous solution.
Various doses of the test compounds per body weight were selected to investigate the relationship between the dose and survival rate for the evaluation of inhibitory effect against endotoxin induced death. […] While, control group was given the same dose of 0.5% CMC--Na aqueous solution only. […] That is, the inhibitory effect of the compound of the present invention against endotoxin induced death was clearly observed.

In assay [4] the test system is nephrotoxin-induced nephritis. The assay is described as follows: Effect on nephrotoxin-induced nephritis (anti-GBM serum) in rats. Conditions: for Serum parameter BUN / Serum parameter Total cholesterol / Serum parameter triglyceride / Urinary protein One day before induction / Urinary protein Day 5 after induction / Urinary protein Day 3 after induction: oral once daily, means ± S.E.; for Serum parameter BUN: control 27.6 ± 0.9; for Serum parameter Total cholesterol: control 75 ± 3; for Serum parameter triglyceride: control 161 ± 25; for Urinary protein One day before induction: control 12.2 ± 1.1; for Urinary protein Day 5 after induction: control 72.1 ± 25.7; for Urinary protein Day 3 after induction: control 74.1 ± 25.6. Type of assay: in vivo, male SD rats. As to the method: Inhibitory effect of purine derivatives of the present invention against nephrotoxin-induced nephritis was evaluated by the following method.
In the present method of evaluation, nephrotoxin-induced nephritis was induced by administration of anti-GBM (glomerular basement membrane) serum to 9-week old male SD rats. The anti-GBM serum was prepared according to a known method (see Kidney and Dialysis (Jin to Toseki) 31, Special Issue, p. 202-206 (1991), Pub. by Tokyo Igakusha Ltd., Tokyo, Japan). Anti-GBM serum was intravenously administered at an induction dose of 0.15 ml/300 g (body weight). The predetermined dose per body weight of the test compound was suspended in 0.5% CMC--Na aqueous solution and orally administered once daily for consecutive 7 days starting from one day before induction (administration of anti-GBM serum). While, control group was given the same dose of 0.5% CMC--Na aqueous solution only. During the administration period of the test compound, urinary protein was measured every 24 hrs. Seven days after the induction, blood was drawn to prepare serum sample by a conventional method, and BUN, total cholesterol and triglyceride were measured.
Various doses of the test compounds per body weight were selected to investigate the relationship between the dose and urinary protein for the evaluation of inhibitory effect against nephrotoxin-induced nephritis.

The mark [5] stands for this setting: dose 30 mg/kg, day 7 after induction.
Where [6] appears, read: dose 100 mg/kg, day 7 after induction, *p < 0.05.

pIC50: −log10 of the molar value.

On to `COc1nc(-c2cc(C(C)(C)C)c(O)c(C(C)(C)C)c2)nc2nc[nH]c12` [Example 1, 2-(3,5-di-tert-butyl-4-hydroxyphenyl)-6-methoxypurine], for which the pIC50 in assay [1] was 6.02; in assay [3] it was 5.46. For the same compound, the inhibition at 30 µM in assay [2] was 46%.

For `CCCOc1nc(-c2cc(C(C)(C)C)c(O)c(C(C)(C)C)c2)nc2nc[nH]c12` [Example 2, 2-(3,5-di-tert-butyl-4-hydroxyphenyl)-6-n-propoxypurine], the “inhibitory effect against formation of TXA2 (in words)” value in assay [1] is on record as “remarkable inhibitory effect against formation of TXA2”. Moreover, the pIC50 in assay [1] is 6.80; in assay [3] it was 5.47. Also, the Survival rate with endotoxin induced death (dose 100 mg/kg) stood at 68%; in the assay with endotoxin induced death (dose 300 mg/kg) it was 75%. Further, the “effect on survival / endotoxin induced death (in words)” value with endotoxin induced death (oral, 100 and 300 mg/kg) is listed as “increase in survival rate with the increase of dose was clearly observed”. Also, the “Serum parameter BUN” value stood at 26.9 ± 0.8 mg/dL in assay [4] (setting [5]) and 23.6 ± 1.6 mg/dL in assay [4] (setting [6]). Also, the entries for the “Serum parameter Total cholesterol” value in assay [4] (setting [5]) and in assay [4] (setting [6]) were 72 ± 6 mg/dL and 66 ± 2 mg/dL, respectively. Further, the Serum parameter triglyceride in assay [4] (setting [5]) came to 125 ± 20 mg/dL; in assay [4] (dose 100 mg/kg, day 7 after induction, **p < 0.01) it was 60 ± 4 mg/dL. In addition, the “Urinary protein One day before induction” value in assay [4] (dose 30 mg/kg) is given as 10.5 ± 0.8 mg/day; in assay [4] (dose 100 mg/kg) it was 12.2 ± 2.5 mg/day. Moreover, the “Urinary protein Day 5 after induction” value in assay [4] (dose 30 mg/kg) turned out to be 52.8 ± 16.7 mg/day; in assay [4] (dose 100 mg/kg, *p < 0.05), 14.3 ± 1.0 mg/day. The “Urinary protein Day 3 after induction” value is reported as 49.0 ± 16.7 mg/day in assay [4] (dose 30 mg/kg) and 14.5 ± 1.7 mg/day in assay [4] (dose 100 mg/kg, *p < 0.05). The “inhibitory effect against increase of urinary protein (in words)” value in assay [4] (oral, 30 and 100 mg/kg) is reported as “dose dependent inhibitory effect against increase of urinary protein”. Besides, in assay [4] (oral, 30 and 100 mg/kg, day 7 after induction), the “concentrations of serum BUN, total cholesterol and triglyceride (in words)” value is “dose dependent decrease”. Further, in assay [2], the inhibition at 30 µM came to 57%.

With `CCCCOc1nc(-c2cc(C(C)(C)C)c(O)c(C(C)(C)C)c2)nc2nc[nH]c12` [Example 3, 6-n-butoxy-2-(3,5-di-tert-butyl-4-hydroxyphenyl)purine], in assay [1], the “inhibitory effect against formation of TXA2 (in words)” value is reported as “remarkable inhibitory effect against formation of TXA2”. Further, the pIC50 was 6.76 in assay [1] and 5.46 in assay [3]. The inhibition at 30 µM in assay [2] worked out at 78%.

Take `CCCCCCOc1nc(-c2cc(C(C)(C)C)c(O)c(C(C)(C)C)c2)nc2nc[nH]c12` [Example 4, 2-(3,5-di-tert-butyl-4-hydroxyphenyl)-6-n-hexyloxypurine]: the pIC50 was 6.03 in assay [1] and 5.43 in assay [3]. Moreover, the inhibition at 30 µM in assay [2] is 61%.

Turning to `CCCCCCCCOc1nc(-c2cc(C(C)(C)C)c(O)c(C(C)(C)C)c2)nc2nc[nH]c12` [Example 5, 2-(3,5-di-tert-butyl-4-hydroxyphenyl)-6-n-octyloxypurine], the inhibition at 30 µM in assay [2] is 15%. Also, the pIC50 in assay [3] is 5.27.

Take `CC(C)(C)c1cc(-c2nc(OCCc3ccccc3)c3[nH]cnc3n2)cc(C(C)(C)C)c1O` [Example 6, 2-(3,5-di-tert-butyl-4-hydroxyphenyl)-6-phenethyloxypurine]: the pIC50 in assay [1] was 6.17; in assay [3], 5.46. Also, the inhibition at 30 µM in assay [2] came out at 35%.

On to `CC(C)(C)c1cc(-c2nc(O)c3[nH]cnc3n2)cc(C(C)(C)C)c1O` [Example 7, 2-(3,5-di-tert-butyl-4-hydroxyphenyl)-6-hydroxypurine], for which the inhibition at 30 µM in assay [2] is 5%. Further, the pIC50 in assay [3] was 5.47.

For the compound `CC(C)(C)c1cc(-c2nc(OCCCC(=O)O)c3[nH]cnc3n2)cc(C(C)(C)C)c1O` [Example 8, 6-(3-carboxy-n-propoxy)-2-(3,5-di-tert-butyl-4-hydroxyphenyl)purine], the inhibition at 30 µM in assay [2] turned out to be 5%. Also, in assay [3], the pIC50 was 5.40.

With `CC(C)(C)c1cc(-c2nc(OCCCCCC(=O)O)c3[nH]cnc3n2)cc(C(C)(C)C)c1O` [Example 9, 6-(5-carboxy-n-pentyloxy)-2-(3,5-di-tert-butyl-4-hydroxyphenyl)purine], the inhibition at 30 µM in assay [2] was found to be 2%. Moreover, the pIC50 in assay [3] is 5.44.

As to `CC(C)(C)c1cc(-c2nc(OCCCCCCCC(=O)O)c3[nH]cnc3n2)cc(C(C)(C)C)c1O` [Example 10, 6-(7-carboxy-n-heptyloxy)-2-(3,5-di-tert-butyl-4-hydroxyphenyl)purine], the inhibition at 30 µM in assay [2] was 4%. Moreover, in assay [3], the pIC50 was 5.43.

`CC(C)(C)c1cc(-c2nc(OCc3ccc(C(=O)O)cc3)c3[nH]cnc3n2)cc(C(C)(C)C)c1O` [Example 11, 6-(4-carboxybenzyloxy)-2-(3,5-di-tert-butyl-4-hydroxyphenyl)purine]: the inhibition at 30 µM in assay [2] came out at 53%. The pIC50 in assay [3] was 5.41.

As a reminder, the pIC50 is the negative decadic logarithm of the IC50, by convention in mol/L. A higher pIC50 goes with a low IC50.
